Experimental data taken from paper PMC9628989 (Antiviral Research, 2007).
Read-outs that look alike come from different tables or passages of the source.

Assays:
[1] = in vivo; cited from earlier work
in vitro [2] = conditions: both, human, hepatocytes
[3] = in vivo; cited from earlier work; remark: listed apart in the source
in vitro [4] = conditions: both, CD-1, mouse, hepatocytes
[5] = cynomolgus monkey, s9, 0 h, pH 7.4
[6] = CD-1, mouse, s9, 0 h, pH 7.4
[7] = mouse, in vivo, po; cited from earlier work
[8] = human, s9, 0 h, pH 7.4
in vitro [9] = conditions: cynomolgus monkey, s9, pH 7.4, Half-life
in vitro [10] = conditions: CD-1, mouse, s9, pH 7.4, Half-life

Row | SMILES | oral bioavailability [1] | half-life (in vitro [2]) [min] | nephrotoxicity [3] | half-life (in vitro [4]) [min] | Percentage of CMX001 remaining at incubation time point 0 min [5] [%] | Percentage of CMX001 remaining at incubation time point 0 min [6] [%] | orally administered drug accounted for in plasma [7] | Percentage of CMX001 remaining at incubation time point 0 min [8] [%] | half-life (in vitro [9]) [min] | half-life (in vitro [10]) [min]
1 | Nc1ccn(C[C@@H](CO)OCP(=O)(O)O)c(=O)n1 [CDV, [S]-1-[3-hydroxy-2-phosphonylmethoxypropyl]cytosine] | poor oral bioavailability |  |  |  |  |  |  |  |  | 
2 | CCCCCCCCCCCCCCCCOCCCOP(=O)(O)CO[C@H](CO)Cn1ccc(N)nc1=O [CMX001, hexadecyloxypropyl ester of CDV] |  | 228 | not been shown to cause nephrotoxicity | 213 | 100 | 100 | approximately 88% | 100 | 8 | > 100
